In patent publication US20060134774A1, “Detection of protease enzymes” (Marligen Biosciences, Inc., priority 2002, published 2006):

How the values were obtained:
Assay type in all cases: cell-based
caspase-3 [1] = biological target: T1, caspase-3 (Homo sapiens, UniProt P42574); assay: Single-plex assay for active caspase-3 (bead capture of caspase-3/biotin-DEVD-FMK complex from treated cells); details: human myeloma cell line KAS, 8 hours, 5 uM camptothecin with 1 uM biotin-DEVD-FMK, vs. culture with inhibitor only
T1 construct: endogenous in cells; host or cells: human myeloma cell line KAS
T1 sequence (P42574 29-175 limits assumed): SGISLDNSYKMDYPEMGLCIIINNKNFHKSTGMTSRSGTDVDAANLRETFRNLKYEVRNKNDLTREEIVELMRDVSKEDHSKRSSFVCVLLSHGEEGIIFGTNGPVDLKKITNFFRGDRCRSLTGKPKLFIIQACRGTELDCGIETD
T1 sequence (P42574 176-277 limits assumed): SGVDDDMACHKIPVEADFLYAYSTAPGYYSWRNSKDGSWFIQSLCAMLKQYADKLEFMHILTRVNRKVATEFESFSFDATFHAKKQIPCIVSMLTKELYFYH
Experimental: Preparation of Amine-Reactive Beads
Luminex beads were dispersed by vortexing for 15 seconds followed by sonication in a water bath for 2 minutes. To wash, beads were pelleted by centrifugation for 2 minutes at 12,000×g in a microcentrifuge and then resuspended in 100 ul of water. Beads were pelleted again, resuspended in 80 ul of activation buffer (100 mM sodium phosphate, monobasic pH 6.3), vortexed briefly and sonicated for 30 seconds. Reactive n-hydroxysuccinimide (NHS) esters on the bead surface were prepared by adding 10 ul of 50 mg/ml Sulfo-NHS solution (Pierce, Rockland, Ill.) and 10 ul of 50 mg/ml 1-Ethyl-3-[3-dimethylaminopropyl]carbodiimide Hydrochloride (EDC) to the bead suspension, briefly vortexing, and rotating for 20 minutes in the dark. […]
Human myeloma cell line KAS was cultured in RPMI+10% FBS at 37° C. in the presence of 5% CO2. […] After three washes, the cell pellet was vortexed in lysis buffer containing 50 mM Tris-HCl pH 7.5, 150 mM NaCl, 1 mM EDTA, 0.5% NP40, 0.5% Triton X-100 and protease inhibitors (5 ug/ml leupeptin, 2 ug/ml pepstatin A, 1 mM PMSF (phenyl methyl sulfonyl […]). Lysates were stored overnight at −80° C., thawed on ice, vortexed, and spun at 4° C. for 1 hour at 12,000×g in a micro-centrifuge. Protein concentrations in the cleared supernatants were determined spectrophotometrically using Bradford reagent prior to storage at −80° C. […]

caspase-3 [2] = biological target: T1, caspase-3; assay: Multiplex caspase assay (antibody-coated bead array), caspase-3; details: myeloma cell line Kas, 8 hours camptothecin + biotin-DEVD-FMK vs. biotin-DEVD-FMK alone
Experimental: (§1) Using the method described in example 1 above Luminex bead sets (colors) 27, 29, and 31 are coupled to antibodies for caspase-3, caspase-7, and caspase 9 respectively. Immediately before using, beads are vortexed for 30 seconds and sonicated for 2 minutes to disperse. Beads are then mixed to provide a 1000 bead/ul (each color) suspension with equivalent representation of each bead set. Cell lysate was prepared from myeloma cell line Kas as describe in example 1. One culture was treated with biotinylated caspase inhibitor biotin-DEVD-FMK for 8 hours and a second culture was treated for 8 hours with the apoptosis inducer camptothecin and biotinylated caspase inhibitor, biotin-DEVD-FMK. A portion of the multiplex bead suspension (2 ul) was incubated with 50 ul of each sample of cell extract diluted to 10 ug/ml in assay buffer (50 mM Tris pH 7.5, 100 mM NaCl, 0.05% tween-20 and 0.1% BSA). Following a 1 hour incubation while shaking in the dark, beads are washed with 100 ul of assay buffer using a filterplate comprising a 1.2 micron PVDF membrane (Millipore). Beads are resuspended in 50 ul of assay buffer containing 2 ug/ml streptavidin-PE conjugate (Pierce) and shaken in the dark for an additional 30 minutes. […] The presence of labeled caspase enzymes on bead surfaces was detected using the Luminex 100 instrumentation. […]

caspase-7 [3] = biological target: T2, caspase-7 (Homo sapiens, UniProt P55210); assay: Multiplex caspase assay (antibody-coated bead array), caspase-7; details: myeloma cell line Kas, 8 hours camptothecin + biotin-DEVD-FMK vs. biotin-DEVD-FMK alone
T2 construct: endogenous in cells; host or cells: human myeloma cell line KAS
T2 sequence (P55210 24-198 limits assumed): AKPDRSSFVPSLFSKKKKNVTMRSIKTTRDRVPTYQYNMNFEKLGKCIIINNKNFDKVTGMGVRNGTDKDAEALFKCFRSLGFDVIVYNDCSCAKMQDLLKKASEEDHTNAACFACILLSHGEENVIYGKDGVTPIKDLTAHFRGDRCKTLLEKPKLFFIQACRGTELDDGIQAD
T2 sequence (P55210 207-303 limits assumed): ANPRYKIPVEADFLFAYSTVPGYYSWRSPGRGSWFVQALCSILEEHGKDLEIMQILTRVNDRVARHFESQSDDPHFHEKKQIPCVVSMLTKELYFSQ
Experimental: as §1

caspase 9 [4] = biological target: T3, caspase 9 (Homo sapiens, UniProt P55211); assay: Multiplex caspase assay (antibody-coated bead array), caspase 9; details: myeloma cell line Kas, 8 hours camptothecin + biotin-DEVD-FMK vs. biotin-DEVD-FMK alone
T3 construct: endogenous in cells; host or cells: human myeloma cell line KAS
T3 sequence (P55211 1-416): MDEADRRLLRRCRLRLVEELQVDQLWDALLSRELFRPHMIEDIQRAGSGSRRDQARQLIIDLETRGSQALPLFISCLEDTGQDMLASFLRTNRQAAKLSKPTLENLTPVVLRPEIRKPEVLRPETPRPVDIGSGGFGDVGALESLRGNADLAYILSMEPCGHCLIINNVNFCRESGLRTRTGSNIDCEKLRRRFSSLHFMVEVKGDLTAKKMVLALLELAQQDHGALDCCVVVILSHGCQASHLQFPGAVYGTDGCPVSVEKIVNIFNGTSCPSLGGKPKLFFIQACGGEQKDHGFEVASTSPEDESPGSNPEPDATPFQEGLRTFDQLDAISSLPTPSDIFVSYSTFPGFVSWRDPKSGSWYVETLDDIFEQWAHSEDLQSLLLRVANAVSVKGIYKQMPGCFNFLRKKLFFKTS
Experimental: as §1

caspase-3 [5] = biological target: T1, caspase-3; assay: Competitive multiplex inhibitor assay, caspase-3; details: myeloma cell line Kas, 8 hours camptothecin + biotin-DEVD-FMK
Excerpt: (§2) In another aspect of the invention a labeled inhibitor and a non-labeled inhibitor are both added to the sample. The non-labeled inhibitor competes with the labeled inhibitor for binding to proteases. With this mode of the invention, new inhibitors may be screened for specificity and the binding constants of new inhibitors may be determined by determining the amount of unlabeled inhibitor necessary to reduce the binding of the labeled inhibitor by a certain amount. Using the methods described in example 2 above Luminex bead sets (colors) 27, 29, and 31 are coupled to antibodies for caspase-3, caspase-7, and caspase 9 respectively. Immediately before using, beads are vortexed for 30 seconds and sonicated for 2 minutes to disperse. Beads are then mixed to provide a 1000 bead/ul (each color) suspension with equivalent representation of each bead set. Cell lysate is prepared from the myeloma cell line Kas as described in Example 1 with the exception that an additional portion of cells is treated for 8 hours with camptothecin, the biotinylated caspase inhibitor biotin-DEVD-FMK and an equal amount of an experimental caspase inhibitor called Mx435. The MX435 inhibitor is not labeled with biotin, and therefore, it competes with the labeled inhibitor for binding to each caspase. […] The presence of labeled caspase enzymes on bead surfaces is detected using the Luminex 100 instrumentation. […]

caspase-7 [6] = biological target: T2, caspase-7; assay: Competitive multiplex inhibitor assay, caspase-7; details: myeloma cell line Kas, 8 hours camptothecin + biotin-DEVD-FMK
Excerpt: as §2

caspase 9 [7] = biological target: T3, caspase 9; assay: Competitive multiplex inhibitor assay, caspase 9; details: myeloma cell line Kas, 8 hours camptothecin + biotin-DEVD-FMK
Excerpt: as §2

CC[C@@]1(O)C(=O)OCc2c1cc1n(c2=O)Cc2cc3ccccc3nc2-1 [camptothecin]
caspase 3 activity: signal of biotin-labeled inhibitor bound to captured caspase 3 (FIG. 10) (caspase-3 [1]): induced | induction of caspase 3 activity (median fluorescent intensity, FIG. 11) (caspase-3 [2]): induced the most | induction of caspase 7 activity (median fluorescent intensity, FIG. 11) (caspase-7 [3]): induced | induction of caspase 9 activity (median fluorescent intensity, FIG. 11) (caspase 9 [4]): induced the least | induction of caspase 3 activity by camptothecin (median fluorescent intensity, FIG. 12) (caspase-3 [5]): induced | induction of caspase 7 activity by camptothecin (median fluorescent intensity, FIG. 12) (caspase-7 [6]): induced | induction of caspase 9 activity by camptothecin (median fluorescent intensity, FIG. 12) (caspase 9 [7]): induced
